The source made the active and inactive calls.
Tests used:
[1] = Luminescence Cell-Based Dose Confirmation HTS to Identify Activators of 5'UTR Stem-Loop Driven Alpha-Synuclein mRNA Translation in H4 Neuroglioblastoma Cells. [Related pubchem assays: 1829 (Project Summary), 1814 (Primary HTS)]; assay type: functional
Protein RecA = target: T1, Protein RecA (Mycobacterium tuberculosis, UniProt P9WHJ3); test: Fluorescence Cell-Free Homogeneous Dose Retest to Identify Inhibitors of RecA-Intein Splicing Activity. [Related pubchem assays (depositor defined):AID2097, AID2223, AID489010, AID492950]; assay type: functional
T1 sequence (P9WHJ3 whole entry): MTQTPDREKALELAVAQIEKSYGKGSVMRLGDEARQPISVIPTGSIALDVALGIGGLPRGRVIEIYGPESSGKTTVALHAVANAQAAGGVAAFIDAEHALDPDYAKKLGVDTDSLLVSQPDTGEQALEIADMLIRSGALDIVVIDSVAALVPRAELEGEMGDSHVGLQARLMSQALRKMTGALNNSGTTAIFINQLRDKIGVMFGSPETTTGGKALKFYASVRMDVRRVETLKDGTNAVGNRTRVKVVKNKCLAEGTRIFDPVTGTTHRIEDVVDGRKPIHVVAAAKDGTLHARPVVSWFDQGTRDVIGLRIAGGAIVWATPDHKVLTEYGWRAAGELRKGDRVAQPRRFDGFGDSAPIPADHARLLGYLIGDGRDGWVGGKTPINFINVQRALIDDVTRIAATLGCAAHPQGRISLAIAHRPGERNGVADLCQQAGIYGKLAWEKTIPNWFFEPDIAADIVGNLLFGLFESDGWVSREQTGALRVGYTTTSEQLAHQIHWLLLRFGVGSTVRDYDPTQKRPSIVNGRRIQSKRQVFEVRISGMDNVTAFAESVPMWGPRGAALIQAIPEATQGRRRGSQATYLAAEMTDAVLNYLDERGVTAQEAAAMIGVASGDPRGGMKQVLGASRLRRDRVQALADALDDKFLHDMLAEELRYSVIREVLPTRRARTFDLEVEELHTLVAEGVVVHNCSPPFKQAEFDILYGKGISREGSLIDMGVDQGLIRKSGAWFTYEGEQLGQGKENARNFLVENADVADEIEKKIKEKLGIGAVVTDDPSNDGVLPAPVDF

BJ [2] = test: cells; assay type: functional, cell-based; conditions: Homo sapiens
[3] = cytotoxicity toward DRD oncogenic fibroblasts, dose response, cell-based, non-viral oncogenic, luminescence (AID 1934); assay type: functional; conditions: Homo sapiens
H4 = test: Luminescence Cell-Based Dose Response HTS to Identify Activators of 5'UTR Stem-Loop Driven Prion Protein mRNA Translation in H4 Neuroglioblastoma Cells. [Related pubchem assays: 1829 (Project Summary), 1814 (Primary HTS)]; assay type: functional; conditions: Homo sapiens
BJ [4] = test: cytotoxicity toward BJ-TERT fibroblasts, dose response, cell-based, RAS-independent, luminescence (AID 1933); assay type: functional; conditions: Homo sapiens
Paired box protein Pax-8 = Paired box protein Pax-8 (Homo sapiens, UniProt Q06710); test: inhibitors of PAX8-driven TPO luciferase reporter, dose response, RMG-I cells, cherry-pick (AID 687027); assay type: functional, cell-based;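 further: luciferase reporter driven by Pax8 target thyroperoxidase promoter measured by SteadyGlo luminescence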
Paired box protein Pax-8, sequence (Q06710 whole entry): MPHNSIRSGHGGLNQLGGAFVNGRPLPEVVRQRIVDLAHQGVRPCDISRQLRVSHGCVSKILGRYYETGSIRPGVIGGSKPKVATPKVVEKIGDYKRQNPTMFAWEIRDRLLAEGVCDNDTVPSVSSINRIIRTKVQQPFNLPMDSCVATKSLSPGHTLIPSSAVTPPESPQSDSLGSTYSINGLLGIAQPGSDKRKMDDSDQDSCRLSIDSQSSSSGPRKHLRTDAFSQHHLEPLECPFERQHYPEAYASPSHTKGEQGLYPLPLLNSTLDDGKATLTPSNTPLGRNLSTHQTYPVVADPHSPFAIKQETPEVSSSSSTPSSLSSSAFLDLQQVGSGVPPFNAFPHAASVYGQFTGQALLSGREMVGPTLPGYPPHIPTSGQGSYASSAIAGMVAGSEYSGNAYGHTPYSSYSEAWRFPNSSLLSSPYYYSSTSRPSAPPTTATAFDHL

[5] = target: Glutathione S-transferase omega-1 (Homo sapiens, UniProt P78417); test: GSTO1 inhibitor potency, recombinant enzyme, late-stage follow-up, biochemical, SE-Rh probe, in-gel fluorescence, powder samples (AID 463081); assay type: functional
Glutathione S-transferase omega-1, sequence (P78417 whole entry): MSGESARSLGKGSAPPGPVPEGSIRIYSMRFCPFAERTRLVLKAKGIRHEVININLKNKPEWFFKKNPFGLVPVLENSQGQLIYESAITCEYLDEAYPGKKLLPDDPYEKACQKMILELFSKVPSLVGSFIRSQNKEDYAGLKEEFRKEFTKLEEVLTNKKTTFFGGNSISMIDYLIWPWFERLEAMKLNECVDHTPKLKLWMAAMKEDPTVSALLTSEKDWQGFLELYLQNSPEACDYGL

BJ [6] = test: cytotoxicity toward BJ-TERT-LT-ST fibroblasts, dose response, cell-based, RAS-independent, luminescence (AID 1935); assay type: functional; conditions: Homo sapiens;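 further: BJ fibroblasts immortalized with TERT plus LT and ST oncogenes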
[7] = non-specific cell cytotoxicity, dose response, cytotoxicity control for PAX8 inhibitor project, plate reader, dry powder samples (AID 743021); assay type: functional, cell-based
[8] = Luminescence Cell-Based Dose Retest to Confirm Inhibitors of Cancer Stem Cells. [Related pubchem assays (depositor defined):AID2717, AID2721]; assay type: functional; conditions: Homo sapiens
[9] = target: T2, Replicative DNA helicase DnaB (Mycobacterium tuberculosis, UniProt P9WMR3); test: DnaB intein splicing inhibitors, dose response, biochemical, cell-free fluorescence (AID 449749); assay type: functional
T2 sequence (P9WMR3 whole entry): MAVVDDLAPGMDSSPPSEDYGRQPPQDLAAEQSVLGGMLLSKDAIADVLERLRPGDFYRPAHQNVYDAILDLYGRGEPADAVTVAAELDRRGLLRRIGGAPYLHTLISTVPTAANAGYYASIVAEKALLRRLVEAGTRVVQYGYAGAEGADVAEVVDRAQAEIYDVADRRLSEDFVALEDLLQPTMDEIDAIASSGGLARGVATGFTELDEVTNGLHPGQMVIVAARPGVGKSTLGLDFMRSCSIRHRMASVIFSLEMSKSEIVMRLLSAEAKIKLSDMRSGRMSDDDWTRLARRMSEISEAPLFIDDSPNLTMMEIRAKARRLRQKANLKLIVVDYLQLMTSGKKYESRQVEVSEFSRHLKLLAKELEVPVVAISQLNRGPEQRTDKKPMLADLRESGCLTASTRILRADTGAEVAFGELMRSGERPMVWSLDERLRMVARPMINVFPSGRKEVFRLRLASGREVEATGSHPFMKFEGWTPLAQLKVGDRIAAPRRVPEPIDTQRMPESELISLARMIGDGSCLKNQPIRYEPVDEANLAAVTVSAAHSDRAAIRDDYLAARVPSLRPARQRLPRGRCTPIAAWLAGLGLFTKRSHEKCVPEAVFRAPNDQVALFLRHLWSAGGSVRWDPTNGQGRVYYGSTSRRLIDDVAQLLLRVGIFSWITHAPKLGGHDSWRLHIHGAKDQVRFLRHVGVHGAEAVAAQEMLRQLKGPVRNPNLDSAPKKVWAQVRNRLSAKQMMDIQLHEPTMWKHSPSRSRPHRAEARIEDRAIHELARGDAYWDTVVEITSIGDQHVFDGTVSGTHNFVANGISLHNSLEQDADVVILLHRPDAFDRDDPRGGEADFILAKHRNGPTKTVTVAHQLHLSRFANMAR

BJ [10] = test: cytotoxicity toward Ras-transformed BJeLR fibroblasts, dose response, cell-based, alamar blue fluorescence, cherrypicked samples (AID 2631); assay type: functional; conditions: Homo sapiens;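 further: confirmatory dose-response assay in RAS-dependent BJ fibroblasts engineered with TERT, LT and ST, with cytotoxicity read by fluorescence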
[11] = Luminescence Cell-Based Dose Response HTS to Identify Activators of Luciferase Translation or Activity in H4 […] Cells. [Related pubchem assays: 1829 (Project Summary), 1814 (Primary HTS)]; assay type: functional
Aminopeptidase N = target: T3, Aminopeptidase N (Plasmodium falciparum FcB1/Columbia, UniProt O96935); test: P. falciparum M1AAP inhibitors, biochemical, fluorogenic H-Leu-NHMec substrate, 1536-well (AID 1445); design: species or system Plasmodium falciparum 3D7, 3D7
T3 sequence (O96935 whole entry): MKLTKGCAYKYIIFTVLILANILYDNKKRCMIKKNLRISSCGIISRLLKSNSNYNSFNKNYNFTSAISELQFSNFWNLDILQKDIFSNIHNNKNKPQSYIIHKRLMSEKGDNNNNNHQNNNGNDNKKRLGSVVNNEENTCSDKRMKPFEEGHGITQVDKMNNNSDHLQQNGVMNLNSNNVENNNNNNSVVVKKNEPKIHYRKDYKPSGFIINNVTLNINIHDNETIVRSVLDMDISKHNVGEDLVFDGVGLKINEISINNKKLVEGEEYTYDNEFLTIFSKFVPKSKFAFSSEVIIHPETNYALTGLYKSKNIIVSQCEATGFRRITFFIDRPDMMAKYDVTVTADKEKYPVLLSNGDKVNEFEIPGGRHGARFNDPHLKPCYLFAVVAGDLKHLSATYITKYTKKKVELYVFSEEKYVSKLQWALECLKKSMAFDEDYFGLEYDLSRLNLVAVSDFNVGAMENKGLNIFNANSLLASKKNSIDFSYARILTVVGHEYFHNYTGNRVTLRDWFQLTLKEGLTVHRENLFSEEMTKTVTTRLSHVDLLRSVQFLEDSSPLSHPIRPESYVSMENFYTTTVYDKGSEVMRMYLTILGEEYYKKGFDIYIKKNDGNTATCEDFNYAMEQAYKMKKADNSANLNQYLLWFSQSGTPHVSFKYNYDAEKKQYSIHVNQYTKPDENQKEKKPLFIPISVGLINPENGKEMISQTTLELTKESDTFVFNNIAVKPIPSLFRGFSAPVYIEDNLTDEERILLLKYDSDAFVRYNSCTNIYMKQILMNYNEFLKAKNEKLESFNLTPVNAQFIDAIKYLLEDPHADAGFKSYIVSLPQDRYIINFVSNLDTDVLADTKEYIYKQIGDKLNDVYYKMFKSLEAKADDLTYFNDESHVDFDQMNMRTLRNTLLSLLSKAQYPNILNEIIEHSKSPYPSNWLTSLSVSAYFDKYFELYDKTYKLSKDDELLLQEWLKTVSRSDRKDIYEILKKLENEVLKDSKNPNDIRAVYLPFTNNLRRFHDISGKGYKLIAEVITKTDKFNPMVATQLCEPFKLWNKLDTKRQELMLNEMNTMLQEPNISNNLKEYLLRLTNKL

[12] = microbe, parasite or virus in culture; assay type: functional; conditions: Mycobacterium tuberculosis
[13] = target: Dual specificity protein phosphatase 3 (Homo sapiens, UniProt P51452); test: Dose Response Confirmation of compounds that inhibit VHR1 in Fluorescent Assay. [Related pubchem assays (depositor defined):AID1661, AID1878]; assay type: functional
Dual specificity protein phosphatase 3, sequence (P51452 whole entry): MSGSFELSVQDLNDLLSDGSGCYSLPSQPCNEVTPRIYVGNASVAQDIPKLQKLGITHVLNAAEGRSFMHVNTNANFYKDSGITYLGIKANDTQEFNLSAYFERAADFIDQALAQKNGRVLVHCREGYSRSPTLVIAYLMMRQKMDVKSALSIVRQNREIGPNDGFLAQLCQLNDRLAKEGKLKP

Leucine aminopeptidase = target: T4, Leucine aminopeptidase (Plasmodium falciparum 3D7, UniProt Q8IL11); test: P. falciparum M17LAP inhibitors, primary screen, biochemical, fluorogenic H-Leu-NHMec substrate, 1536-well (AID 1619); assay type: functional
T4 sequence (Q8IL11 whole entry): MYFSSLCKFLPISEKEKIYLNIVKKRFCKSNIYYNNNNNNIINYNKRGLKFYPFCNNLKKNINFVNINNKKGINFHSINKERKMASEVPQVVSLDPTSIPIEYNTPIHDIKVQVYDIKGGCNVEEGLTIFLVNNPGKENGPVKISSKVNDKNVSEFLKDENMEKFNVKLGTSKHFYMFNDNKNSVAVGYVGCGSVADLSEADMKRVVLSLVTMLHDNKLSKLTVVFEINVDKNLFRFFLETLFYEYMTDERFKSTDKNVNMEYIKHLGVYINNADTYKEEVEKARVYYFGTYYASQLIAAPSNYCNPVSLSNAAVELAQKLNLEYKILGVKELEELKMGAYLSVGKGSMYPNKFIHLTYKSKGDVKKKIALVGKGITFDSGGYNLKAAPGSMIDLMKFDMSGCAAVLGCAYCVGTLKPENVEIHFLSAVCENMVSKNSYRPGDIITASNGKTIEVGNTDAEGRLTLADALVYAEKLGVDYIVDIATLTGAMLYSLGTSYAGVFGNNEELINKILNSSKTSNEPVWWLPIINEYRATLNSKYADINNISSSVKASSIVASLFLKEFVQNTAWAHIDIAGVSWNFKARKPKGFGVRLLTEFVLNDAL

[14] = target: Tyrosine-protein phosphatase non-receptor type 7 (Homo sapiens, UniProt P35236); test: Dose Response confirmation of compounds that inhibit HePTP. [Related pubchem assays (depositor defined):AID1059, AID1661, AID2085]; assay type: functional
Tyrosine-protein phosphatase non-receptor type 7, sequence (P35236 whole entry): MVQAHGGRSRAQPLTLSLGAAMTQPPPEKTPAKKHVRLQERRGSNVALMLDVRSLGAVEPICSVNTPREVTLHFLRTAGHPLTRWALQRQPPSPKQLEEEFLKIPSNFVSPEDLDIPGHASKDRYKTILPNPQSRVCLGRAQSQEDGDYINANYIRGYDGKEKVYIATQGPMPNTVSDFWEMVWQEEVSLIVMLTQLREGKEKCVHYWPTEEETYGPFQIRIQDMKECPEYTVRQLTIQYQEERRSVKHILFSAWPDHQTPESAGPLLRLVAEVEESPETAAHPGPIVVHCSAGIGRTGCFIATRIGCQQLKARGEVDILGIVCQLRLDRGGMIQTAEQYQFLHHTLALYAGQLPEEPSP

[15] = target: DNA dC->dU-editing enzyme APOBEC-3A (Homo sapiens, UniProt P31941); test: APOBEC3A DNA deaminase inhibitors, dose response, biochemical (AID 504722); assay type: functional
DNA dC->dU-editing enzyme APOBEC-3A, sequence (P31941 whole entry): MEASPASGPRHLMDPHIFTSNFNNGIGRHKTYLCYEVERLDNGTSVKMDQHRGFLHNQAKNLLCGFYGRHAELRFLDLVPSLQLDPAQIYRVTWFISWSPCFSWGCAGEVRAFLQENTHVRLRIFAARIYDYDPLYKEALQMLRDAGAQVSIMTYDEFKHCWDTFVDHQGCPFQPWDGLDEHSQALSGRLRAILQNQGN

[16] = target: DNA dC->dU-editing enzyme APOBEC-3G (Homo sapiens, UniProt Q9HC16); test: Dose Response confirmation of small molecule APOBEC3G DNA Deaminase Inhibitors via a fluorescence-based single-stranded DNA deaminase assay. [Related pubchem assays (depositor defined):AID493012, AID493028]; assay type: functional
DNA dC->dU-editing enzyme APOBEC-3G, sequence (Q9HC16 whole entry): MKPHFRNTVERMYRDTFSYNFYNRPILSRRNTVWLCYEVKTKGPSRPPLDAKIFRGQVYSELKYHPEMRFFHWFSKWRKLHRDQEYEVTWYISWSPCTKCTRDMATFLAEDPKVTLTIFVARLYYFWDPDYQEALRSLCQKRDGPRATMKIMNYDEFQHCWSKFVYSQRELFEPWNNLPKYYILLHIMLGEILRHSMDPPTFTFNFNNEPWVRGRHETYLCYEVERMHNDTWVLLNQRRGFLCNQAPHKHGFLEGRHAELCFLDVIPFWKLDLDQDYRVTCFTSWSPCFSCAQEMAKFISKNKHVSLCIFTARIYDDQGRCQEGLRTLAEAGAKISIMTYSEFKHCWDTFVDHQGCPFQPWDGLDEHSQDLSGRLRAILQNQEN

Q: For `O=C(NC1CCCCC1)C(c1cccnc1)N(C(=O)CCl)c1ccc(F)cc1` (stereo unspecified), which EC50 [1] is on record?
A: > 120 µM (not active)

Q: What about the EC50 (Protein RecA) of the same compound?
A: 0.816 µM (active)

Q: What about the EC50 (BJ [2]) of the same compound?
A: 5.32 µM (inconclusive)

Q: And the EC50 [3]?
A: 2.48 µM (active)

Q: What about the EC50 (H4) of the same compound?
A: > 120 µM (not active)

Q: What about the EC50 (BJ [4]) of the same compound?
A: 1.3 µM (inconclusive)

Q: And the AC50 (Paired box protein Pax-8)?
A: 1.43 µM (active)

Q: And the IC50 [5]?
A: 0.054 µM (active)

Q: And the EC50 (BJ [6])?
A: 7.25 µM (active)

Q: What about the AC50 [7] of the same compound?
A: 7.37 µM (active)

Q: And the AC50 [8]?
A: 1.54 µM (active)

Q: What about the AC50 [9] of the same compound?
A: 5.76 µM (active)

Q: What about the EC50 (BJ [10]) of the same compound?
A: 0.535 µM (active)

Q: What about the EC50 [11] of the same compound?
A: 10.1 µM (active)

Q: With `Cc1csc(NC(=O)CCCC(=O)O)c1-c1nc2ccccc2s1` as the compound, how does the IC50 (Aminopeptidase N) read?
A: 11.2 µM (active)

Q: What about the CC50 [12] of the same compound?
A: > 40 µM (active)

Q: And the IC50 [13]?
A: 2.67 µM (active)

Q: And the IC50 (Leucine aminopeptidase)?
A: 35.4 µM (active)

Q: And the IC50 [14]?
A: 3.28 µM (active)

Q: Which results are given for `Cc1ccc(-n2c(-c3ccco3)n[nH]c2=S)cc1`?
A: IC50 [15]: > 100 µM (inactive); IC50 [16]: 4.57 µM (active)

Reference: ChEMBL document CHEMBL1201862, “PubChem BioAssay data set” (2004)
